Test results published in US5409956A, “Indan derivative and thromboxane antagonist containing the same” (Zeria Pharmaceutical Co., Ltd., priority 1991, dated 1995).

What was measured:
[1] = tested on: U46619 induced contraction in rat aorta; assay: Inhibitory effect on U46619 induced contraction in rat aorta; type: cell-based, SD male rat; settings: relaxation of contraction by 10^-7 M U46619, rat thoracic aorta, 37° C., logit method
Protocol: Inhibitory effect on U46619 induced contraction in rat aorta:
The sample was kept at 37° C., bubbled with 95% oxygen gas containing 5% CO2, and suspended in a 10 ml organ bath filled with a Krebs-Henseleit solution at 2 g resting tension. 10^-7 M of U46619 which is a stable active substance of TXA2 was added portionwise. After the contraction responses were stabilized, the test compound was added to the organ bath, and its antagonism was evaluated. A concentration-relaxation curve was obtained, to which was applied a logit method to obtain pIC50 values.

[2] = tested on: Human platelet aggregation; assay: Human platelet aggregation inhibitory action (in vitro), U46619-induced; type: cell-based; settings: human PRP, approximately 4×10^5 cells/ml, 1 μM U46619, 37° C., Born's method, read-out: IC50 (concentration required for inhibiting the platelet aggregation induced by 1 μM of U46619 by 50%)
Protocol: Human platelet aggregation inhibitory action (in vitro):
Blood samples were collected from healthy humans. 9 parts by volume of the collected blood was mixed with 1 part by volume of an aqueous 3.8%(W/v) trisodium citrate, and the mixture was subjected to centrifugal separation for collecting the supernatant-to prepare a platelet rich plasma (PRP). A further centrifugation was-performed to separate a platelet poor plasma (PPP). PRP was diluted with PPP to adjust the number of platelets to approximately 4×10^5 cells/ml. Subsequently, 200 micro liters of PRP were added with the […] and 25 micro liters of an equimolar aqueous sodium hydrogencarbonate solution, and stirred for 2 minutes at 37° C. Thereafter, U46619 was added thereto for inducing platelet aggregation. The platelet aggregation was measured in accordance with a Born's method ("Nature", vol 194, page 927 (1962)), and inhibition against the platelet aggregation was examined. The platelet aggregation inhibitory action of the test compounds was expressed as the IC50 value (concentration required for inhibiting the platelet aggregation induced by 1 μM of U46619 by 50%).

Row | SMILES | IC50 [1] [µM] | IC50 [2] [µM]
1 | O=C(O)Cc1ccc2c(c1)CC(CCNS(=O)(=O)c1ccccc1)C2 (stereo not shown) [Example 25, [2-(2-phenylsulfonylaminoethyl)indan-5-yl]acetic acid] | 0.316 | 2.45
2 | O=C(O)Cc1ccc2c(c1)CC(CNS(=O)(=O)c1ccc(Cl)cc1)C2 (stereo not shown) [Example 24, [2-[(4-chlorophenyl)sulfonylaminomethyl)indan-5-yl]acetic acid] | 0.00302 | 0.77
3 | O=C(O)c1ccc2c(c1)CC(CNS(=O)(=O)c1ccc(Cl)cc1)C2 (stereo not shown) [Example 33, [2-[(4-chlorophenyl)sulfonylaminomethyl]-indan-5-yl]carboxylic acid] | – | 0.85
4 | O=C(O)COc1ccc2c(c1)CC(CNS(=O)(=O)c1ccccc1)C2 (stereo not shown) [Example 29, 2-(phenylsulfonylaminomethyl)indan-5-hydroxyacetic acid] | 0.0316 | –
5 | O=C(O)CCC(=O)c1ccc2c(c1)CC(CNS(=O)(=O)c1ccc(Cl)cc1)C2 (stereo not shown) [Example 40] | – | 1.12
6 | O=C(O)c1ccc2c(c1)CC(CCNS(=O)(=O)c1ccc(Cl)cc1)C2 (stereo not shown) [Example 34, [2-[2-(4-chlorophenyl)sulfonylaminoethyl)indan-5-yl]-carboxylic acid] | – | 0.6
7 | O=C(O)Cc1ccc2c(c1)CC(CNS(=O)(=O)c1ccccc1)C2 (stereo not shown) [Example 1, [2-(phenylsulfonylaminomethyl)indan-5-yl]acetic acid] | 0.0129 | 0.72
8 | O=C(O)COc1ccc2c(c1)CC(CNS(=O)(=O)c1ccc(Cl)cc1)C2 (stereo not shown) [Example 30, 2-[(4-chlorophenyl)sulfonylaminomethyl)indan-5-hydroxyacetic acid] | – | 0.31
9 | O=C(O)COc1ccc(CCNS(=O)(=O)c2ccccc2)cc1 [Control compound, 4-(2-phenylsulfonylaminoethyl)phenoxy acetic acid, reference compound] | 0.427 | 2.53
